Each structure is given as a SMILES string.

Test [1] has as its target Tyrosine-protein kinase Fgr (Homo sapiens) (UniProt P09769). Nature of the test: Inhibition of recombinant human FGR (2 to end residues) assessed as residual activity at 10 uM using poly(Glu, Tyr) 4:1 as substrate at 40 mins in presence of [gamma-33ATP] by scintillation counting based radiometry assay relative to control.
The species named for test [2] is Homo sapiens. Nature of the test: Inhibition of recombinant full length human PKBalpha S478G mutant assessed as residual activity at 10 uM using GRPRTSSFAEGKK as substrate incubated for 40 mins in presence of [gamma33P]ATP by scintillation counting based radiometry assay relative to control.
The target of test [3] is Tau-tubulin kinase 2 (Homo sapiens) (UniProt Q6IQ55). Nature of the test: Inhibition of recombinant human TTBK2 (1 to 331 residues) assessed as residual activity at 10 uM using casein as substrate incubated for 40 mins in presence of [gamma33P]ATP by scintillation counting based radiometry assay relative to control.
The target of test [4] is Tau-tubulin kinase 1 (Homo sapiens) (UniProt Q5TCY1). Nature of the test: Inhibition of recombinant human TTBK1 (1 to 479 residues) assessed as residual activity at 10 uM using casein as substrate incubated for 40 mins in presence of [gamma33P]ATP by scintillation counting based radiometry assay relative to control.
Test [5] deals with Calcium/calmodulin-dependent protein kinase type 1G (Homo sapiens) (UniProt Q96NX5). The test is described as follows: Inhibition of recombinant full length human CaMKIgamma assessed as residual activity at 10 uM using KKLRRTLSFAEPG as substrate incubated for 40 mins in presence of [gamma-33ATP] by scintillation counting based radiometry assay relative to control.
For test [6], the species on record is Homo sapiens. The test is described as follows: Inhibition of recombinant human FLT4 V1128L/H1146R mutant (800 to end residues) assessed as residual activity at 10 uM using GGEEEEYFELVKKKK as substrate at 40 mins in presence of [gamma-33ATP] by scintillation counting based radiometry assay relative to control.
The target of test [7] is Casein kinase II subunit alpha (Homo sapiens) (UniProt P68400). The test is described as follows: Inhibition of recombinant full length human CK2alpha1 assessed as residual activity at 10 uM using RRRDDDSDDD as substrate incubated 40 mins in presence of [gamma-33ATP] by scintillation counting based radiometry assay relative to control.
The target in test [8] is Bone morphogenetic protein receptor type-2 (Homo sapiens) (UniProt Q13873). The test is described as follows: Inhibition of recombinant human BMPR2 (172 to 734 residues) assessed as residual activity at 10 uM using myelin basic protein as substrate incubated for 120 mins in presence of [gamma-33ATP] by scintillation counting based radiometry assay relative to control.
Test [9] deals with Serine/threonine-protein kinase 32A (Homo sapiens) (UniProt Q8WU08). Nature of the test: Inhibition of recombinant human full length STK32A assessed as residual activity at 10 uM using casein as substrate incubated for 40 mins in presence of [gamma33P]ATP by scintillation counting based radiometry assay relative to control.
In test [10] the target is Serine/threonine-protein kinase TAO1 (Homo sapiens) (UniProt Q7L7X3). Nature of the test: Inhibition of recombinant human TAO1 (1 to 327 residues) assessed as residual activity at 10 uM using myelin basic protein as substrate incubated for 40 mins in presence of [gamma33P]ATP by scintillation counting based radiometry assay relative to control.
Test [11] has as its target Inhibitor of nuclear factor kappa-B kinase subunit beta (Homo sapiens) (UniProt O14920). Nature of the test: Inhibition of full length human IKKbeta assessed as residual activity at 10 uM using peptide as substrate after 40 mins by [gamma-33ATP] radiometric assay relative to control.
In test [12] the target is Serine/threonine-protein kinase ULK3 (Homo sapiens) (UniProt Q6PHR2). Nature of the test: Inhibition of recombinant human full length ULK3 assessed as residual activity at 10 uM using casein as substrate incubated for 40 mins in presence of [gamma33P]ATP by scintillation counting based radiometry assay relative to control.
In test [13] the target is Serine/threonine-protein kinase WNK4 (Homo sapiens) (UniProt Q96J92). Nature of the test: Inhibition of recombinant human WNK4 (A31 to D461 residues) assessed as residual activity at 10 uM using myelin basic protein as substrate incubated for 40 mins in presence of [gamma33P]ATP by scintillation counting based radiometry assay relative to control.
Test [14] is filed under the species Homo sapiens. Nature of the test: Inhibition of activated recombinant human TEC F514V mutant activated (174 to end residues) assessed as residual activity at 10 uM using EFPIYDFLPAKKK as substrate incubated for 40 mins in presence of [gamma33P]ATP by scintillation counting based radiometry assay relative to control.
Test [15] deals with CDK7/Cyclin H/MNAT1 (Homo sapiens) (UniProt P51946+P50613+P51948). Nature of the test: Inhibition of recombinant full length human CDK7/cyclinH/MAT1 assessed as residual activity at 10 uM using peptide as substrate incubated for 40 mins in presence of [gamma-33ATP] by scintillation counting based radiometry assay relative to control. The test is classed as protein-complex assay.

For test [16], the system named is Tyrosine-protein kinase ABL1 (Homo sapiens), P00519 [Y253F]. Nature of the test: Inhibition of human ABL1 Y253F mutant (27 to end residues) assessed as residual activity at 10 uM using EAIYAAPFAKKK as substrate incubated for 40 mins in presence of [gamma-33ATP] by scintillation counting based radiometry assay relative to control.
Test [17] concerns the target Serine/threonine-protein kinase ICK (Homo sapiens) (UniProt Q9UPZ9). Nature of the test: Inhibition of human ICK (1 to 312 residues) assessed as residual activity at 10 uM using RRRFRPASPLRGP as substrate after 40 mins by [gamma-33ATP] radiometric assay relative to control.
Test [18] concerns the target Serine/threonine-protein kinase D2 (Homo sapiens) (UniProt Q9BZL6). Nature of the test: Inhibition of recombinant full-length human PKD2 assessed as residual activity at 10 uM using KKLNRTLSVA as substrate incubated for 40 mins in presence of [gamma33P]ATP by scintillation counting based radiometry assay relative to control.
The target of test [19] is Serine/threonine-protein kinase Nek6 (Homo sapiens) (UniProt Q9HC98). Nature of the test: Inhibition of recombinant human NEK6 (2 to end residues) assessed as residual activity at 10 uM using FLAKSFGSPNRAYKK as substrate measured after 40 mins in presence of [gamma33P]ATP by scintillation counting based radiometry assay relative to control.
The target in test [20] is Tyrosine-protein kinase Fer (Homo sapiens) (UniProt P16591). The test is described as follows: Inhibition of recombinant human FER (541 to end residues) assessed as residual activity at 10 uM using KKKSPGEYVNIEF as substrate at 40 mins in presence of [gamma-33ATP] by scintillation counting based radiometry assay relative to control.
Test [21] deals with Serine/threonine-protein kinase PAK 6 (Homo sapiens) (UniProt Q9NQU5). Nature of the test: Inhibition of recombinant human PAK6 (382 to end residues) assessed as residual activity at 10 uM using RRRLSFAEPG as substrate measured after 40 mins in presence of [gamma33P]ATP by scintillation counting based radiometry assay relative to control.
Test [22] concerns the target Tyrosine-protein kinase Srms (Homo sapiens) (UniProt Q9H3Y6). The test is described as follows: Inhibition of recombinant human SRMS assessed as residual activity at 10 uM presence of [gamma33P]ATP by scintillation counting based radiometry assay relative to control.

Inhibitor of nuclear factor kappa-B kinase subunit beta (Homo sapiens), sequence (O14920 whole entry): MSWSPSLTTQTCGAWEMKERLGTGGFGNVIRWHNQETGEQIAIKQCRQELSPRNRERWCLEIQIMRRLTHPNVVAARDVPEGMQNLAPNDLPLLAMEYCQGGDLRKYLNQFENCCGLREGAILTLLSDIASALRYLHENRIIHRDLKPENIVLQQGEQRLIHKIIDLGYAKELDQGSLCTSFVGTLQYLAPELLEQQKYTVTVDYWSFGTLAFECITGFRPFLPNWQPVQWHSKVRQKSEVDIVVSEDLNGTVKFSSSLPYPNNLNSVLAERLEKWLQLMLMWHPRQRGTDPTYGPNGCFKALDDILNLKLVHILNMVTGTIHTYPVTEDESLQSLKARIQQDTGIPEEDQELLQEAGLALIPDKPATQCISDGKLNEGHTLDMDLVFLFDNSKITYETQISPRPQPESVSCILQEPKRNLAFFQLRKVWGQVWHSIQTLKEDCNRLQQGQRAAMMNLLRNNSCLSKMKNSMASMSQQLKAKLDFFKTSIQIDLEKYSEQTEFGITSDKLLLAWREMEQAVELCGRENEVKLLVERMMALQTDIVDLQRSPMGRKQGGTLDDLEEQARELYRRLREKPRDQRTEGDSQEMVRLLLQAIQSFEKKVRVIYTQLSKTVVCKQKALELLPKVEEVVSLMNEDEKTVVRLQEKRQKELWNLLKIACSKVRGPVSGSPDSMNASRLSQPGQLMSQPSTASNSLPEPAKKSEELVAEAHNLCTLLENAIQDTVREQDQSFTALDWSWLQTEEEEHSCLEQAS
Serine/threonine-protein kinase PAK 6 (Homo sapiens), sequence (Q9NQU5 whole entry, looked up): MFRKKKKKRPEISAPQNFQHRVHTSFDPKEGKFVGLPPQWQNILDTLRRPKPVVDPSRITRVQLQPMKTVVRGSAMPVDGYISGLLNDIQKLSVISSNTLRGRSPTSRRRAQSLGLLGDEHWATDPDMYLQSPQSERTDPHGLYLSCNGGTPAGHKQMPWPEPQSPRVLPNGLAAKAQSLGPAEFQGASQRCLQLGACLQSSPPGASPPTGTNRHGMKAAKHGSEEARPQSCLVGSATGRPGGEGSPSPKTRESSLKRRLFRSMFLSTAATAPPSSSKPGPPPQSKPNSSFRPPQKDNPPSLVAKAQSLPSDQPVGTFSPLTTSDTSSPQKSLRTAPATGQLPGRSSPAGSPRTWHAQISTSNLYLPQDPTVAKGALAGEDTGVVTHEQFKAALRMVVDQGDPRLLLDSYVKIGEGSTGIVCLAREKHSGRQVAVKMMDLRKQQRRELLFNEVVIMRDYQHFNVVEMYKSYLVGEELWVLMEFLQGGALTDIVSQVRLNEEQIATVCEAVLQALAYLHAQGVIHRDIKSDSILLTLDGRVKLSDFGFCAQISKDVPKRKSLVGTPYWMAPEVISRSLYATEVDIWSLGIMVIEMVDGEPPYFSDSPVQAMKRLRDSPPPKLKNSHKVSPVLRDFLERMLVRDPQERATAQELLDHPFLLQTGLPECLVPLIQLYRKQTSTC
Casein kinase II subunit alpha (Homo sapiens), sequence (P68400 whole entry, looked up, the tested form may be a part): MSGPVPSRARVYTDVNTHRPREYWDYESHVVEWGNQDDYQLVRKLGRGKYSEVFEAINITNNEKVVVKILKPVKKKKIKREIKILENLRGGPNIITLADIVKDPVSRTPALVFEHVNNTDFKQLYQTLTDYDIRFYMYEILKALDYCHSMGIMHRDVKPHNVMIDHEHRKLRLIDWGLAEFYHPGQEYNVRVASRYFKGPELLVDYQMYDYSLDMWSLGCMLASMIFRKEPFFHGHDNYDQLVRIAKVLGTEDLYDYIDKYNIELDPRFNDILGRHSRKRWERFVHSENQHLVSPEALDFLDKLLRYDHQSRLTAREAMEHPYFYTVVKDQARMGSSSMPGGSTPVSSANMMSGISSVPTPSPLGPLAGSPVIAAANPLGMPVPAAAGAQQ
Serine/threonine-protein kinase ICK (Homo sapiens), sequence (Q9UPZ9 whole entry, the tested form may be a part): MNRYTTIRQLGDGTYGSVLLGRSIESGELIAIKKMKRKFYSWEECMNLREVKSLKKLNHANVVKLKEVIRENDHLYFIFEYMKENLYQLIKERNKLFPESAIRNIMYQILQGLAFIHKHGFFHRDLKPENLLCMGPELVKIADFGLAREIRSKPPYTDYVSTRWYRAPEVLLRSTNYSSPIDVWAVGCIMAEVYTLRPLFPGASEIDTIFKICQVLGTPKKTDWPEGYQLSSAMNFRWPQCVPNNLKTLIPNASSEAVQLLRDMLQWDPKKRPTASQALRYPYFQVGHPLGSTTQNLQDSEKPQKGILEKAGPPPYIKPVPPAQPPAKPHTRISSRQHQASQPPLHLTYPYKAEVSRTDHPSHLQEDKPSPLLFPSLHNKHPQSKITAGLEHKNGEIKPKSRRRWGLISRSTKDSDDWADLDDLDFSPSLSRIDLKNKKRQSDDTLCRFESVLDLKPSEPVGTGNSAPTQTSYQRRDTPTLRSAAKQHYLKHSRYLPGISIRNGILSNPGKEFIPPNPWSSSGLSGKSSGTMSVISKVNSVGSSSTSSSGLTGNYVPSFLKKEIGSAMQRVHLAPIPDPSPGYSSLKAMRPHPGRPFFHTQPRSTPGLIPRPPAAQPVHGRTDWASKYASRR
Calcium/calmodulin-dependent protein kinase type 1G (Homo sapiens), sequence (Q96NX5 whole entry): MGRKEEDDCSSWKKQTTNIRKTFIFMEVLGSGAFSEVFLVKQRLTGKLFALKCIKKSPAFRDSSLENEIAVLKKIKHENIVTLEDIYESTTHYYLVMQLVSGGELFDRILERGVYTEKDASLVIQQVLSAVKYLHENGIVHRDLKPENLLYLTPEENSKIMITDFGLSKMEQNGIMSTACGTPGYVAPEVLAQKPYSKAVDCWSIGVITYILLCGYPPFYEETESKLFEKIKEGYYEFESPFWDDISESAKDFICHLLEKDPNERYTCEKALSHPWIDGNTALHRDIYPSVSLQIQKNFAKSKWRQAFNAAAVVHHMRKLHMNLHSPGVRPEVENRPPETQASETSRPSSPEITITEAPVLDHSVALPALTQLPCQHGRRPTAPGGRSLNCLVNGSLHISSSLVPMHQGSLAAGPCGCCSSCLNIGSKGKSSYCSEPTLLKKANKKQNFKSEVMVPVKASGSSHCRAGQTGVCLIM
Serine/threonine-protein kinase WNK4 (Homo sapiens), sequence (Q96J92 whole entry, the tested form may be a part): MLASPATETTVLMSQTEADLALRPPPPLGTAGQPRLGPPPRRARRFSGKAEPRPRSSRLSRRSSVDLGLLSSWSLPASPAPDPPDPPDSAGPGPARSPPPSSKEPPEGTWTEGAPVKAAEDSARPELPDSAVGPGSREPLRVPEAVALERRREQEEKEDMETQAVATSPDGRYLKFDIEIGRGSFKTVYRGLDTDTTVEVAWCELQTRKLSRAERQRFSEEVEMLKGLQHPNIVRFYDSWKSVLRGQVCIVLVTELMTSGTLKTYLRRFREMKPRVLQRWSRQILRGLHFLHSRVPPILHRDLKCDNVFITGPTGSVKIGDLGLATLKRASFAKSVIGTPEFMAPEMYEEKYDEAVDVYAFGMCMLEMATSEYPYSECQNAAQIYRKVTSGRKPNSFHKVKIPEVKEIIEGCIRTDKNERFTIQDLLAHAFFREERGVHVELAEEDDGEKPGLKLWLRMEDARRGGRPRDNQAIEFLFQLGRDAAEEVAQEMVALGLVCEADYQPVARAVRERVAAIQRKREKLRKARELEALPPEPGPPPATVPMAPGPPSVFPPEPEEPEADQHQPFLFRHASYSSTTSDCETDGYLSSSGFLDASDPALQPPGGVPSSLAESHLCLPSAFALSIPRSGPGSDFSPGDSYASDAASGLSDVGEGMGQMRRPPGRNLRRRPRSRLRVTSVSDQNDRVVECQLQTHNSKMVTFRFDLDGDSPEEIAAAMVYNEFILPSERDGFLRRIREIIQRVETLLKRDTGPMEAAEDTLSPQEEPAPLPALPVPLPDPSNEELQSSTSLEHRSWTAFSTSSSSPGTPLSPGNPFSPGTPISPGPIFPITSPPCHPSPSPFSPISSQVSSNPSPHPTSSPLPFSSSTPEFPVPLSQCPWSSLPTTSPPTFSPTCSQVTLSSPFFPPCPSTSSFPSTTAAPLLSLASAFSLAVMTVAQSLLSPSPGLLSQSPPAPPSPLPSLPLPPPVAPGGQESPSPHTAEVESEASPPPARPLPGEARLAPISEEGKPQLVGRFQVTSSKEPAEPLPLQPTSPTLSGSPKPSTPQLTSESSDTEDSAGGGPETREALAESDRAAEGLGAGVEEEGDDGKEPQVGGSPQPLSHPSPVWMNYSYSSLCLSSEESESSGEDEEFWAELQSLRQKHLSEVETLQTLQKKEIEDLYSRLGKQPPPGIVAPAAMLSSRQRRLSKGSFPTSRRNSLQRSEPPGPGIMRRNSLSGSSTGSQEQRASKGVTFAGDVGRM
Tyrosine-protein kinase Srms (Homo sapiens), sequence (Q9H3Y6 whole entry): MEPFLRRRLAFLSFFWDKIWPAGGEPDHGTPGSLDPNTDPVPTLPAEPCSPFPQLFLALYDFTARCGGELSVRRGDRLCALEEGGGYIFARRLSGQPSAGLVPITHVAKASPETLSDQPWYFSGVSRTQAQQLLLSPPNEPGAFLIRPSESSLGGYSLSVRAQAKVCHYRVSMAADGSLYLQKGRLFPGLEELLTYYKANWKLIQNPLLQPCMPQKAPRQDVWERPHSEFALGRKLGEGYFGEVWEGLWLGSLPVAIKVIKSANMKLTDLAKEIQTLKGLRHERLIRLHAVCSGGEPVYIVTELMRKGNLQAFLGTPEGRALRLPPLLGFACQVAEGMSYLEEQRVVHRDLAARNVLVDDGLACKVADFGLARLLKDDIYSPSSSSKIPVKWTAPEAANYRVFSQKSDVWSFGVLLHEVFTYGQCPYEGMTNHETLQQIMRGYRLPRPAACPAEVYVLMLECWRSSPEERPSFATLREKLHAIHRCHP
Serine/threonine-protein kinase Nek6 (Homo sapiens), sequence (Q9HC98 whole entry): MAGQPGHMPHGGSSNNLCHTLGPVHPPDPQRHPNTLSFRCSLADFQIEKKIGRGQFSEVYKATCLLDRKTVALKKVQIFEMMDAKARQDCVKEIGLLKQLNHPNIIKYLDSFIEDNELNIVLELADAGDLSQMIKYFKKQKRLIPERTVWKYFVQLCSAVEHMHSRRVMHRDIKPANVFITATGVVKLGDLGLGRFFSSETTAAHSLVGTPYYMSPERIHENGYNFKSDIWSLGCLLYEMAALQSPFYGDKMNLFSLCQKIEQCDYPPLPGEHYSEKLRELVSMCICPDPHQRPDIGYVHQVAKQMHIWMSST

For `C[C@@H](c1ccccc1)n1nnc2cnc3ccc(-c4cnc5[nH]ccc5c4)cc3c21`, the Activity stood at 5% in test [1]; 80% in the test filed under Homo sapiens [2]; 87% in test [3]; 91% in test [4]; 47% in test [5]; 13% in the test listed under Homo sapiens [6]. Besides, the Activity in test [7] is 68%; in [8], 80%; in test [9] it was 95%; in test [10] it was 18%; in [11], 96%; in test [12], 94%. The Activity in test [13] came to 96%; in the test listed under Homo sapiens [14] it was 35%; in test [15], 80%; in [16] it was 6%; in test [17], 44%; in test [18], 65%. Moreover, the Activity in test [19] came to 72%; in [20] it was 83%; in test [21], 74%; in test [22], 30%.
